Measurements from patent EP1943275B1, “INSULINOTROPIC COMPOUNDS AND USES THEREOF” (Activotec SPP Limited, priority 2005, dated 2010).
Ends that are not written are not given here.

Assays:
[1] = active form of GLP-1; DPP IV cleavage between Ala8 and Glu9; cited from earlier work
DPP-IV = assay: Dipeptidyl peptidase IV (DPP-IV) assays (Example 10): DPP-IV digestion monitored by RP-HPLC; format: in vitro ADME; settings: PBS/TEthA, pH 7.5, 37°
Excerpt: Their stabilities were monitored by RP-HPLC, noting the disappearance of the intact sequence and appearance of a species missing the N terminal dipeptide or similar fragment.

[2] = Control study: chemical stability in PBS/triethanolamine solution in the absence of DPP-IV; format: physicochemical; settings: no DPP-IV; for percentage of each analogue remaining: PBS/TEthA, pH 7.5, 37°
Protocol: In the control study, peptides were incubated with PBS/triethanolamine solution in the absence of DPP-IV to measure their chemical stability.

dipeptidyl peptidase IV = assay: DPP-IV assay (Example 5): hydrolysis followed by HPLC and ES-MS; format: in vitro ADME; settings: After 18 hr incubation, 37°C, 50 mM triethanolamine buffer, pH 7.8, 11 milliunits DPP-IV
Protocol: Biological Chemistry. 385, pp 169-177.
Briefly, 100 - 200 microgams of each peptide was dissolved in 0.5 ml of 50 mM triethanolamine buffer, pH 7.8. To this was added a 10 microlitre solution of 11 milliunits DPP-IV (Sigma) and the solutions incubated at 37°C for up to 42 hours. […] The incubations were terminated by addition of 5 microlitres TFA to each tube and 50 microlitre of each were injected onto a reversed phase 4.6 x 250 mm C18 HPLC column, eluting a gradient of 20% - 45% acetonitrile in 0.1 % TFA/water over 25 minutes. […] After 42 hours, the 2 analogues slowly degraded to a product that gave a mass spectrum consistent with the mass of the 9-37 sequence, indicating longer term instability of the urea bond. This represented as much as 15% of the product by HPLC. This degradation appeared to be non-DPP-IV related, since samples without enzyme gave the same profile.

In the case of `CC[C@H](C)[C@H](NC(=O)[C@H](Cc1ccccc1)NC(=O)[C@H](CCC(=O)O)NC(=O)[C@H](CCCCN)NC(=O)[C@H](C)NC(=O)[C@H](C)NC(=O)[C@H](CCC(N)=O)NC(=O)CNC(=O)[C@H](CCC(=O)O)NC(=O)[C@H](CC(C)C)NC(=O)[C@H](Cc1ccc(O)cc1)NC(=O)[C@H](CO)NC(=O)[C@H](CO)NC(=O)[C@@H](NC(=O)[C@H](CC(=O)O)NC(=O)[C@H](CO)NC(=O)[C@@H](NC(=O)[C@H](Cc1ccccc1)NC(=O)[C@@H](NC(=O)CNC(=O)[C@H](CCC(=O)O)NC(=O)[C@H](C)NC(=O)[C@@H](N)Cc1c[nH]cn1)[C@@H](C)O)[C@@H](C)O)C(C)C)C(=O)N[C@@H](C)C(=O)N[C@@H](Cc1c[nH]c2ccccc12)C(=O)N[C@@H](CC(C)C)C(=O)N[C@H](C(=O)N[C@@H](CCCCN)C(=O)NCC(=O)N[C@@H](CCCN=C(N)N)C(=O)NCC(=O)O)C(C)C` [Native GLP-1 7-37, glucagon-like peptide-1 (7-37)], the circulating half-life [1] is given as “less than 2 minutes”.

For `CC[C@H](C)[C@H](NC(=O)[C@H](Cc1ccccc1)NC(=O)[C@H](CCC(=O)O)NC(=O)[C@H](CCCCN)NC(=O)[C@H](C)NC(=O)[C@H](C)NC(=O)[C@H](CCC(N)=O)NC(=O)CNC(=O)[C@H](CCC(=O)O)NC(=O)[C@H](CC(C)C)NC(=O)[C@H](Cc1ccc(O)cc1)NC(=O)[C@H](CO)NC(=O)[C@H](CO)NC(=O)[C@@H](NC(=O)[C@H](CC(=O)O)NC(=O)[C@H](CO)NC(=O)[C@@H](NC(=O)[C@H](Cc1ccccc1)NC(=O)[C@@H](NC(=O)CNC(=O)[C@H](CCC(=O)O)NC(=O)CONC[C@H](C)NC(=O)[C@@H](N)Cc1c[nH]cn1)[C@@H](C)O)[C@@H](C)O)C(C)C)C(=O)N[C@@H](C)C(=O)N[C@@H](Cc1c[nH]c2ccccc12)C(=O)N[C@@H](CC(C)C)C(=O)N[C@H](C(=O)N[C@@H](CCCCN)C(=O)NCC(=O)N[C@@H](CCCNC(=N)N)C(=O)NCC(=O)O)C(C)C` [SP005], the “percentage of each analogue remaining” value (DPP-IV; Time 0 hr) was 95%, the “percentage of each analogue remaining” value (DPP-IV; Time 22 hr) was 95% and the “percentage of each analogue remaining” value ([2]; Time 0 hr) was 98%. For the same compound, the “percentage of each analogue remaining” value ([2]; Time 22 hr) was 95%.

In the case of `CC[C@H](C)[C@H](NC(=O)[C@H](Cc1ccccc1)NC(=O)[C@H](CCC(=O)O)NC(=O)[C@H](CCCCN)NC(=O)[C@H](C)NC(=O)[C@H](C)NC(=O)[C@H](CCC(N)=O)NC(=O)CNC(=O)[C@H](CCC(=O)O)NC(=O)[C@H](CC(C)C)NC(=O)[C@H](Cc1ccc(O)cc1)NC(=O)[C@H](CO)NC(=O)[C@H](CO)NC(=O)[C@@H](NC(=O)[C@H](CC(=O)O)NC(=O)[C@H](CO)NC(=O)[C@@H](NC(=O)[C@H](Cc1ccccc1)NC(=O)[C@@H](NC(=O)CNC(=O)[C@H](CCC(=O)O)NC(=O)CNNC(=O)[C@@H](N)Cc1c[nH]cn1)[C@@H](C)O)[C@@H](C)O)C(C)C)C(=O)N[C@@H](C)C(=O)N[C@@H](Cc1c[nH]c2ccccc12)C(=O)N[C@@H](CC(C)C)C(=O)N[C@H](C(=O)N[C@@H](CCCCN)C(=O)NCC(=O)N[C@@H](CCCNC(=N)N)C(=O)NCC(=O)O)C(C)C` [SP006, L-His-NH-NH-CH2-C(O)-Glu9-37], the “percentage of each analogue remaining” value (DPP-IV; Time 0 hr) was 95% and the “percentage of each analogue remaining” value ([2]; Time 0 hr) was 98%.

With `CC[C@H](C)[C@H](NC(=O)[C@H](Cc1ccccc1)NC(=O)[C@H](CCC(=O)O)NC(=O)[C@H](CCCCN)NC(=O)[C@H](C)NC(=O)[C@H](C)NC(=O)[C@H](CCC(N)=O)NC(=O)CNC(=O)[C@H](CCC(=O)O)NC(=O)[C@H](CC(C)C)NC(=O)[C@H](Cc1ccc(O)cc1)NC(=O)[C@H](CO)NC(=O)[C@H](CO)NC(=O)[C@@H](NC(=O)[C@H](CC(=O)O)NC(=O)[C@H](CO)NC(=O)[C@@H](NC(=O)[C@H](Cc1ccccc1)NC(=O)[C@@H](NC(=O)CNC(=O)[C@H](CCC(=O)O)NC(=O)CNNC(=O)[C@H](C)NC(=O)[C@@H](N)Cc1c[nH]cn1)[C@@H](C)O)[C@@H](C)O)C(C)C)C(=O)N[C@@H](C)C(=O)N[C@@H](Cc1c[nH]c2ccccc12)C(=O)N[C@@H](CC(C)C)C(=O)N[C@H](C(=O)N[C@@H](CCCCN)C(=O)NCC(=O)N[C@@H](CCCNC(=N)N)C(=O)NCC(=O)O)C(C)C` [SP007, L-His-L-Ala-NH-NH-CH2-C(O)-Glu9-37] the “percentage of each analogue remaining” value (DPP-IV; Time 0 hr) was 95%, the “percentage of each analogue remaining” value (DPP-IV; Time 22 hr) was less than 5% and the “percentage of each analogue remaining” value ([2]; Time 0 hr) was 98%. For the same compound, the “percentage of each analogue remaining” value ([2]; Time 22 hr) was 95% and the “percentage of each analogue remaining” value ([2]; Time 47 hr) was 95%.

For `CC[C@H](C)[C@H](NC(=O)[C@H](Cc1ccccc1)NC(=O)[C@H](CCC(=O)O)NC(=O)[C@H](CCCCN)NC(=O)[C@H](C)NC(=O)[C@H](C)NC(=O)[C@H](CCC(N)=O)NC(=O)CNC(=O)[C@H](CCC(=O)O)NC(=O)[C@H](CC(C)C)NC(=O)[C@H](Cc1ccc(O)cc1)NC(=O)[C@H](CO)NC(=O)[C@H](CO)NC(=O)[C@@H](NC(=O)[C@H](CC(=O)O)NC(=O)[C@H](CO)NC(=O)[C@@H](NC(=O)[C@H](Cc1ccccc1)NC(=O)[C@@H](NC(=O)CNC(=O)[C@H](CCC(=O)O)NC(=O)[C@H](C)NNC(=O)[C@@H](N)Cc1c[nH]cn1)[C@@H](C)O)[C@@H](C)O)C(C)C)C(=O)N[C@@H](C)C(=O)N[C@@H](Cc1c[nH]c2ccccc12)C(=O)N[C@@H](CC(C)C)C(=O)N[C@H](C(=O)N[C@@H](CCCCN)C(=O)NCC(=O)N[C@@H](CCCNC(=N)N)C(=O)NCC(=O)O)C(C)C` [SP008, L-His-NH-NH-CH(CH3)-C(O)-Glu9-37], the “percentage of each analogue remaining” value (DPP-IV; Time 0 hr) was 95%, the “percentage of each analogue remaining” value (DPP-IV; Time 22 hr) was 95% and the “percentage of each analogue remaining” value ([2]; Time 0 hr) was 98%. The non-enzymatic degradation ([2]; after 47 hr, by HPLC) was 20-25%.

For HAEGTFTSDVSSYLEG [GLP-1 7-22], the “cleavage of the N terminal dipeptide by DPP-IV” value (dipeptidyl peptidase IV) was “completely cleaved”.
